Laboratory results as given in ChEMBL document CHEMBL1144756, “Isoprenoid glycosides from Liriosma ovata” (2008).
In brackets after ≈: the same amount, converted by molar mass.

Legend:
Format in all cases: functional
Mus musculus = experiment: Antiinflammatory activity against corton oil-induced ear edema in mouse
Staphylococcus aureus = experiment: Antibacterial activity against Staphylococcus aureus ATCC 6538 after 24 hrs by broth microdilution method; details: ATCC 6538, 24 h
Pseudomonas aeruginosa = experiment: Antibacterial activity against Pseudomonas aeruginosa ATCC 9027 after 24 hrs by broth microdilution method; details: ATCC 9027, 24 h

Row | SMILES | ID50 (Mus musculus) [microg/cm2] | MIC (Staphylococcus aureus) [µg/mL] | MIC (Pseudomonas aeruginosa) [µg/mL] | MBC (Staphylococcus aureus) [µg/mL] | MBC (Pseudomonas aeruginosa) [µg/mL]
1 | COc1ccc2c(c1)c(CC(=O)O)c(C)n2C(=O)c1ccc(Cl)cc1 [INDOMETHACIN] | 93 | – | – | – | –
2 | CC(=O)/C=C/[C@@]1(O)[C@H](C)C[C@H](O[C@@H]2O[C@H](CO[C@@H]3OC[C@](O)(CO)[C@H]3O)[C@@H](O)[C@H](O)[C@H]2O)CC1(C)C | – | 4 (≈ 7.68 µM) | > 20 | – | –
3 | CC(C)(O)[C@@H]1CC[C@]2(C)[C@@H](O[C@@H]3O[C@H](CO)[C@@H](O)[C@H](O)[C@H]3O)C[C@@H](O)[C@](C)(O)[C@H]2C1 | – | 2 (≈ 4.6 µM) | 4 (≈ 9.21 µM) | 4 (≈ 9.21 µM) | 4 (≈ 9.21 µM)
4 | CC(C)O[C@@H]1O[C@H](CO[C@@H]2OC[C@](O)(CO)[C@H]2O)[C@@H](O)[C@H](O)[C@H]1O | – | > 20 | > 20 | – | –
